Read-outs that look alike come from different tables or passages of the source. Marks after values point to notes of the source that are not given here.
Assays:
1,7-DMU-Ab = assay: Competitive antigen ELISA, antibody specificity of 1,7-DMU-Ab; assay type: binding, rabbit; conditions: hypothesized ideal antibody specificity; 0 = no inhibition or no higher than 40% at 5×10^−3 M
Description: (§1) Competitive Antigen ELISA
(§2) BSA, antibodies, Tween™ 20 and horse radish peroxidase are added to buffers and water just prior to use. Urine samples are usually collected four hours after drinking a cup of coffee (instant or brewed with approximately 100 mg of caffeine per cup) and stored at −20° C. as 1-mL aliquots in 1.5-mL microtubes. For the ELISA, the urine samples are diluted with isotonic sodium phosphate buffer, pH 7.5 (310 mosM) to give concentrations of caffeine, 1.7-DMX and 1,7-DMU no higher than 3×10^−6 M in the microtiter plate wells. Wells of the ELISA plate are washed with a Nunc-Immuno wash 12 washer. Sixteen milliliters of a solution of 6.6 μg ml^−1 of isolated IgG antibodies is prepared in a 100 mM sodium carbonate buffer, pH 9.6, and 150 μL of this solution is pipetted in each well of a microtiter plate using a eight channel pipet (Brinkmann Transferpette™-8 50-200 μL) and 200 μL Flex tips from Brinkmann). After coating the wells with antibodies at 4° C. for 20 hours, the wells are washed 3 times with the isotonic sodium phosphate buffer containing 0.05% Tween™ 20 (IPBT) and properly drained by inverting the plate and absorbing the liquid on to a piece of paper towel. Thirty milliliters of a solution of a IPBT solution containing 1% BSA is prepared and 150 μL of this solution is pipetted in each well using a eight channel pipet (Brinkmann Transferpet-te™-8 50-200 μL) and 200 μL yellow tips (Sarstedt yellow tips for P200 Gilson Pipetman). After 3 hours at room temperature, the wells are washed 3 times with IPBT solution and drained. Samples of 400 μL for determination of caffeine, 1,7-DMX and 1,7-DMU are prepared in 1.5-mL microtubes using Sarstedt yellow tips and a P200 Gilson Pipetman. Then, 200 μL of each sample are pipetted in duplicate in a Falcon 96-well microtest tissue culture plate according to the pattern shown in FIG. 23, using Sarstedt yellow tips and a P200 Gilson Pipetman. Using an eight channel pipet (Brinkmann Transferpette™-8 50-200 μL) and changing the tips of the eight channel pipet (200 μL Flex tips from Brinkmann) at each row, 150 μL of samples are transferred in the corresponding wells of a 96-well ELISA microtiter plate coated with antibodies. After the addition of the samples, the microtiter plates are covered and left standing at room temperature for 2 h. While the plate is left standing the substrate buffer without the hydrogen peroxide and o-phenylenediamine hydrochloride is prepared (25 mM citric acid and 50 mM sodium phosphate dibasic buffer, pH 5.0). The microtiter plate is washed 3 times with the IPBT solution and 3 times with a 0.05% Tween 20 solution and drained. Then, 50 […] of hydrogen peroxide and 40 mg of o-phenylenediamine are added to the substrate buffer. One hundred fifty microliters (150 μL) of the substrate buffer solution is then added to each well using a eight channel pipet (Brinkmann Transferpette™-8 50-200 μL) and 200 μL Flex tips (Brinkmann). The microtiter plate is covered and shaken for 25-30 min at room temperature and the enzymatic reaction is stopped by adding 50 μL/well of a 2.5 N HCl solution using an eight channel pipet (Brinkmann Transferpette™-8 50-200 μL) and 200 μL Flex tips (Brinkmann).

AAMU-Ab = assay: Competitive antigen ELISA, cross-reactivity of AAMU-Ab; assay type: binding, rabbit; conditions: for % Cross-Reaction AAMU-Ab: competitive antigen ELISA, 0 = absence of inhibition or inhibition no higher than 40% at the highest concentration tested (5×10^−3 M)
Description: as §1
(§3) Buffers and water without additives are filtered through millipore filters and kept for 1 week. BSA, antibodies, Tween™ 20 and horse radish peroxidase conjugates are added to these buffers and water just prior to use. Urine samples are usually collected 4 hours after drinking a cup of coffee (instant or brewed with approximately 100 mg of caffeine per cup) and stored at −80° C. The urine samples are diluted 10 times with sodium phosphate buffer (620 mosm, pH 7.50) and are subsequently diluted with water to give concentrations of AAMU and 1X no higher than 3×10^−6 M in the ELISA. All the pipettings are done with an eight-channel pipette, except those of the antibody and sample solutions. Starting with the last well, 100 μL of a carbonate buffer (100 mM, pH 9.6) containing 2.5 μg mL-1 antibodies are added to each well. After 90 min. at room temperature, the wells are washed three times with 100 mL of TPB: isotonic sodium phosphate buffer (310 mosm, pH 7.50) containing 0.05% Tween™ 20.
(§4) After the initial wash, unoccupied sites are blocked by incubation for 90 min. at room temperature with 100 μL TBP containing 3% BSA. The wells are washed four times with 100 […] TPB. […] The microplate is gently shaken with an orbital shaker at room temperature for 3-4 hours. The wells are washed three times with 100 μL TPB containing 1% BSA and three times with water containing 0.05% Tween™ 20. To the washed plate is added 150 μL of a substrate buffer composed of citric acid (25 mM) and sodium phosphate dibasic buffer (50 mM, pH 5.0) containing 0.06% hydrogen peroxide and 0.04% o-phenylenediamine hydrochloride.
as §3, with “were” for “are”, “They were” for “The urine samples are”, “mL^−1” for “mL-1”, “was pipetted.” for “are added to each well.”, “μL” for “mL”
(§5) After the initial wash, unoccupied sites were blocked by incubation for 90 min. at room temperature with 100 μL TBP containing 3% BSA. The wells were washed four times with 100 μL TPB. […] The microplate was gently shaken with an orbital shaker at room temperature for 3-4 hours. The wells were washed three times with 100 μL with TPB containing 1% BSA and three times with water containing 0.05% Tween™ 20. To the washed plate was added 150 μL of a substrate buffer composed of citric acid (25 mM) and sodium phosphate dibasic buffer (50 mM, pH 5.0) containing 0.06% hydrogen peroxide and 0.04% o-phenylenediamine hydrochloride. After 20 min. at room temperature with shaking, the reaction was stopped with 50 μL of 2.5 N HCl.
(§6) The cross reactivities of AAMU-Ab and 1X-Ab were tested using a wide variety of caffeine metabolites and structural analogs (Table 2 below).

1,7-DMX-Ab = assay: Competitive antigen ELISA, antibody specificity of 1,7-DMX-Ab; assay type: binding, rabbit; conditions: hypothesized ideal antibody specificity; 0 = no inhibition or no higher than 40% at 5×10^−3 M
Description: as §1, §2

1X-Ab = assay: Competitive antigen ELISA, cross-reactivity of 1X-Ab; assay type: binding, rabbit; conditions: competitive antigen ELISA; 0 = absence of inhibition or inhibition no higher than 40% at the highest concentration tested (5×10^−3 M)
Description: as §1, §3, §4
as §3, with “were” for “are”, “They were” for “The urine samples are”, “mL^−1” for “mL-1”, “was pipetted.” for “are added to each well.”, “μL” for “mL”
as §5, §6

Caffeine-Ab = assay: Competitive antigen ELISA, antibody specificity of caffeine-Ab; assay type: binding, rabbit; conditions: hypothesized ideal antibody specificity; 0 = no inhibition or no higher than 40% at 5×10^−3 M
Description: as §1, §2

CYP2D6 = conditions: cited from earlier work
[1] = Felder et al.; cited from earlier work
CYP1A2 = target: T1, CYP1A2 (Homo sapiens, UniProt P05177); conditions: in vitro; cited from earlier work
T1 sequence (P05177 1-516): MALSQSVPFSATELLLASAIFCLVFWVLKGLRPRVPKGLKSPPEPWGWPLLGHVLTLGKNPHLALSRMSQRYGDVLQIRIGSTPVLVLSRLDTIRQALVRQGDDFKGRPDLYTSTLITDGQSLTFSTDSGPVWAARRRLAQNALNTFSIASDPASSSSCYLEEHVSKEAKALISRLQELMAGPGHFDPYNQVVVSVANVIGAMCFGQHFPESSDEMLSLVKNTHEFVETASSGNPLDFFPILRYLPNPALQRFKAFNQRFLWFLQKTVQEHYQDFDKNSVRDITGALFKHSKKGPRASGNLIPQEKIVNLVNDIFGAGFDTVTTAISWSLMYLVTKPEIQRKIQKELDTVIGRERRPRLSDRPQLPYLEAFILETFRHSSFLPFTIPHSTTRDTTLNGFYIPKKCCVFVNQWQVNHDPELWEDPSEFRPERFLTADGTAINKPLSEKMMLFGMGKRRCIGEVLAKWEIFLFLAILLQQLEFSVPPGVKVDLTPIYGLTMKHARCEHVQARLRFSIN

[2] = cited from earlier work

SMILES | % Cross-reaction 1,7-DMU-Ab (1,7-DMU-Ab) | % Cross-Reaction AAMU-Ab (AAMU-Ab) | % Cross-reaction 1,7-DMX-Ab (1,7-DMX-Ab) | % Cross-Reaction 1X-Ab (1X-Ab) | % Cross-reaction Caffeine-Ab (Caffeine-Ab) | other results
CC(=O)Nc1c(N)n(C)c(=O)[nH]c1=O [5-acetamino-6-amino-1-methyluracil] | 0% | 100% | 0% | 0% | 0% | IC50 (AAMU-Ab; read-out: concentration required for 50% inhibition in the competitive antigen ELISA, AAMU-Ab): 1500 nM
Cn1cnc2[nH]c(=O)[nH]c(=O)c21 [7-Methyl Xanthine] | 0% | 0% | 0% | 0% | 0% | –
Cc1nc2[nH]c(=O)[nH]c(=O)c2[nH]1 [8-Methyl Xanthine] | 0% | 0% | 0% | 0% | 0% | –
COc1ccc2c(c1)[C@]13CCCC[C@@H]1[C@H](C2)N(C)CC3 [Dextromethorphan] | – | – | – | – | – | mean performance +/−SE (CYP2D6; extensive metabolizers (EMs), p<0.05 vs PMs): 95+/−0.5%; mean performance +/−SE (CYP2D6; poor metabolizers (PMs), p<0.05 vs EMs): 86+/−6%
Nc1nc2nc[nH]c2c(=O)[nH]1 [Guanine] | 0% | 0% | 0% | 0% | 0% | –
O=c1[nH]cnc2nc[nH]c12 [Hypoxanthine] | 0% | 0% | 0% | 0% | 0% | –
CC(=O)Nc1cc2c3c(cccc3c1)C(=O)N(CCN(C)C)C2=O [N-acetyl-amonafide] | – | – | – | – | – | potency relative to the parent drug amonafide [1]: approximately equipotent to the parent drug; effect on amonafide oxidation (CYP1A2) (CYP1A2): inhibition of amonafide oxidation
C[N+](C)([O-])CCN1C(=O)c2cccc3cc(N)cc(c23)C1=O [N-oxide-amonafide] | – | – | – | – | – | potency relative to the parent drug amonafide [1]: essentially inactive
O=c1cc[nH]c(=O)[nH]1 [Uracil] | 0% | 0% | 0% | 0% | 0% | –
O=c1[nH]c(=O)c2[nH]c(=O)[nH]c2[nH]1 [Uric acid] | 0% | 0% | 0% | 0% | 0% | –
O=c1[nH]c(=O)c2[nH]cnc2[nH]1 [Xanthine] | 0% | 0^a % | 0% | 0% | 0% | –
Nc1ccc(S(=O)(=O)c2ccc(N)cc2)cc1 [dapsone] | – | – | – | – | – | adverse reactions ([2]; fast acetylators): 17%; adverse reactions ([2]; slow acetylators): 46%

Source: patent US20030190671A1, “Use of metabolic phenotyping in individualized treatment with amonafide” (McGill University, priority 2001, published 2003)
